Values quoted from earlier work as cited in article PMC12394750, “2H-1,4-Benzoxazin-3(4H)-one linked 1,2,3-triazole derivatives and their study on inducing DNA damage in tumor cells” (Frontiers in Pharmacology, 2025).

What was measured:
A549 cell = system: A549 cell; parameters: method as in Zhou et al., 2014; conditions: ref Zhou et al., 2014; read-out: Inhibition of A549 cell proliferation, IC50; cited from earlier work
HeLa cells = system: HeLa cells; parameters: method as in Nagavelli et al., 2016; conditions: ref Nagavelli et al., 2016; cited from earlier work
MCF-7 cells = system: MCF-7 cells; parameters: method as in Nagavelli et al., 2016; conditions: ref Nagavelli et al., 2016; cited from earlier work
A549 cancer cells = system: A549 cancer cells; parameters: method as in Feng et al., 2010; conditions: ref Feng et al., 2010; cited from earlier work
DLD-1 cancer cells = system: DLD-1 cancer cells; parameters: method as in Feng et al., 2010; conditions: ref Feng et al., 2010; cited from earlier work
MV4-11 cancer cells = system: MV4-11 cancer cells; parameters: method as in Feng et al., 2010; conditions: ref Feng et al., 2010; cited from earlier work
[1] = biological target: mineralocorticoid receptor; parameters: method as in Hasui et al., 2011; conditions: ref Hasui et al., 2011; read-out: Mineralocorticoid receptor antagonist IC50; cited from earlier work

Structure (SMILES): COc1cc(/C=C/C(=O)c2ccc3c(c2)NC(=O)CO3)cc(OC)c1 [compound 3c]
- IC50 (A549 cell): 3.29 µM

Structure (SMILES): COc1cccc(-c2ccc3c(c2)OCC(=O)N3Cc2cn(-c3cc(Cl)cc(Cl)c3)nn2)c1 [compound 5b]
- Cytotoxicity against HeLa, IC50 (HeLa cells): 15.38 µg/mL
- Cytotoxicity against MCF-7, IC50 (MCF-7 cells): 17.08 µg/mL

Structure (SMILES): O=C1COc2ccc(-c3[nH]c(-c4ccc(C(F)(F)F)cc4)nc3-c3ccccc3)cc2N1 [compound 9c]
- Viability of A549 cancer cells (A549 cancer cells): significantly reduced
- Viability of DLD-1 cancer cells (DLD-1 cancer cells): significantly reduced
- Viability of MV4-11 cancer cells (MV4-11 cancer cells): significantly reduced

Structure (SMILES): Cc1cc(F)ccc1-n1nc(C(F)(F)F)cc1-c1ccc2c(c1)NC(=O)CO2 [compound 14n]
- IC50 [1]: 0.041 µM
